ChEMBL document CHEMBL1201862, “PubChem BioAssay data set” (2004)
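A five-concentration, 48-hour dose response in 96-well plates underlies each endpoint, interpolated linearly between surrounding concentrations. GI50 marks 50% less growth.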 Calls of active or inactive are those of the source. No stated cut-off is given here; in the data, active = GI50 up to about 1.1 µM and inactive = higher.

Key:
Test in all cases: DTP human tumour cell line panel, 48 h
Hs-578T = test system: Hs-578T
OVCAR-3 = test system: OVCAR-3
EKVX = test system: EKVX
SK-OV-3 = test system: SK-OV-3
ACHN = test system: ACHN
MOLT-4 = test system: MOLT-4
NCI-H23 = test system: NCI-H23
MCF7 = test system: MCF7
RXF 393 = test system: RXF 393
A498 = test system: A498
K562 = test system: K562
TK-10 = test system: TK-10
OVCAR-5 = test system: OVCAR-5
SF-295 = test system: SF-295
SW-620 = test system: SW-620
HCT-116 = test system: HCT-116
786-0 = test system: 786-0
HCT-15 = test system: HCT-15
CAKI-1 = test system: CAKI-1
SK-MEL-28 = test system: SK-MEL-28
DU-145 = test system: DU-145
SK-MEL-5 = test system: SK-MEL-5
PC-3 = test system: PC-3
HOP-92 = test system: HOP-92
MDA-N = test system: MDA-N
NCI-H226 = test system: NCI-H226
HT-29 = test system: HT-29
T47D = test system: T47D
IGROV-1 = test system: IGROV-1
SNB-19 = test system: SNB-19
CCRF-CEM = test system: CCRF-CEM
OVCAR-8 = test system: OVCAR-8
Malme-3M = test system: Malme-3M
M14 = test system: M14
MDA-MB-435 = test system: MDA-MB-435
UO-31 = test system: UO-31
U-251 = test system: U-251
LOX IMVI = test system: LOX IMVI
NCI/ADR-RES = test system: NCI/ADR-RES
OVCAR-4 = test system: OVCAR-4
SN12C = test system: SN12C
COLO 205 = test system: COLO 205
A549 = test system: A549
MDA-MB-231 = test system: MDA-MB-231
SF-268 = test system: SF-268
HCC 2998 = test system: HCC 2998
KM12 = test system: KM12
UACC-257 = test system: UACC-257
HOP-62 = test system: HOP-62
NCI-H460 = test system: NCI-H460
NCI-H522 = test system: NCI-H522
BT-549 = test system: BT-549
RPMI-8226 = test system: RPMI-8226
UACC-62 = test system: UACC-62
SNB-75 = test system: SNB-75
HL-60 = test system: HL-60
SF-539 = test system: SF-539
SK-MEL-2 = test system: SK-MEL-2

## OCCN(CCO)c1ncnc2[nH]cnc12
Hs-578T
  GI50: 53.6 µM (inactive)
OVCAR-3
  GI50: > 100 µM (inactive)
EKVX
  GI50: 68.5 µM (inactive)
SK-OV-3
  GI50: > 100 µM (inactive)
ACHN
  GI50: > 100 µM (inactive)
MOLT-4
  GI50: > 100 µM (inactive)
NCI-H23
  GI50: > 100 µM (inactive)
MCF7
  GI50: > 100 µM (inactive)
RXF 393
  GI50: > 100 µM (inactive)
A498
  GI50: > 100 µM (inactive)
K562
  GI50: > 100 µM (inactive)
TK-10
  GI50: 67.1 µM (inactive)
OVCAR-5
  GI50: 60.8 µM (inactive)
SF-295
  GI50: > 100 µM (inactive)
SW-620
  GI50: > 100 µM (inactive)
HCT-116
  GI50: > 100 µM (inactive)
786-0
  GI50: > 100 µM (inactive)
HCT-15
  GI50: > 100 µM
CAKI-1
  GI50: > 100 µM (inactive)
SK-MEL-28
  GI50: > 100 µM (inactive)
DU-145
  GI50: > 100 µM (inactive)
SK-MEL-5
  GI50: > 100 µM (inactive)
PC-3
  GI50: > 100 µM (inactive)
HOP-92
  GI50: > 100 µM (inactive)
MDA-N
  GI50: > 100 µM (inactive)
NCI-H226
  GI50: > 100 µM (inactive)
HT-29
  GI50: > 100 µM (inactive)
T47D
  GI50: > 100 µM (inactive)
IGROV-1
  GI50: > 100 µM (inactive)
SNB-19
  GI50: > 100 µM (inactive)
CCRF-CEM
  GI50: > 100 µM (inactive)
OVCAR-8
  GI50: > 100 µM (inactive)
Malme-3M
  GI50: > 100 µM (inactive)
M14
  GI50: > 100 µM (inactive)
MDA-MB-435
  GI50: > 100 µM (inactive)
UO-31
  GI50: 63.4 µM (inactive)
U-251
  GI50: > 100 µM (inactive)
LOX IMVI
  GI50: > 100 µM (inactive)
NCI/ADR-RES
  GI50: > 100 µM (inactive)
OVCAR-4
  GI50: > 100 µM (inactive)
SN12C
  GI50: > 100 µM (inactive)
COLO 205
  GI50: > 100 µM (inactive)
A549
  GI50: > 100 µM (inactive)
MDA-MB-231
  GI50: 80.9 µM (inactive)
SF-268
  GI50: > 100 µM (inactive)
HCC 2998
  GI50: > 100 µM (inactive)
KM12
  GI50: > 100 µM (inactive)
UACC-257
  GI50: > 100 µM (inactive)
HOP-62
  GI50: > 100 µM (inactive)
NCI-H460
  GI50: > 100 µM (inactive)
NCI-H522
  GI50: > 100 µM (inactive)
BT-549
  GI50: > 100 µM (inactive)
RPMI-8226
  GI50: > 100 µM (inactive)
UACC-62
  GI50: > 100 µM (inactive)

## O=C(O)/C=C/C(=O)Nc1nc[nH]n1
Hs-578T
  GI50: > 100 µM (inactive)
OVCAR-3
  GI50: > 100 µM (inactive)
EKVX
  GI50: > 100 µM (inactive)
SK-OV-3
  GI50: > 100 µM (inactive)
ACHN
  GI50: > 100 µM (inactive)
MOLT-4
  GI50: 62.5 µM (inactive)
NCI-H23
  GI50: > 100 µM (inactive)
MCF7
  GI50: > 100 µM (inactive)
RXF 393
  GI50: > 100 µM (inactive)
A498
  GI50: > 100 µM (inactive)
TK-10
  GI50: > 100 µM (inactive)
SNB-75
  GI50: > 100 µM (inactive)
OVCAR-5
  GI50: > 100 µM (inactive)
SF-295
  GI50: > 100 µM (inactive)
SW-620
  GI50: > 100 µM (inactive)
HCT-116
  GI50: > 100 µM (inactive)
786-0
  GI50: > 100 µM (inactive)
HCT-15
  GI50: > 100 µM
CAKI-1
  GI50: > 100 µM (inactive)
SK-MEL-28
  GI50: > 100 µM (inactive)
DU-145
  GI50: > 100 µM (inactive)
SK-MEL-5
  GI50: > 100 µM (inactive)
PC-3
  GI50: > 100 µM (inactive)
HOP-92
  GI50: > 100 µM (inactive)
MDA-N
  GI50: > 100 µM (inactive)
NCI-H226
  GI50: > 100 µM (inactive)
HT-29
  GI50: > 100 µM (inactive)
T47D
  GI50: > 100 µM (inactive)
IGROV-1
  GI50: > 100 µM (inactive)
HL-60
  GI50: 0.034 µM (active)
SNB-19
  GI50: > 100 µM (inactive)
OVCAR-8
  GI50: > 100 µM (inactive)
M14
  GI50: > 100 µM (inactive)
MDA-MB-435
  GI50: > 100 µM (inactive)
SF-539
  GI50: > 100 µM (inactive)
UO-31
  GI50: > 100 µM (inactive)
U-251
  GI50: > 100 µM (inactive)
LOX IMVI
  GI50: > 100 µM (inactive)
NCI/ADR-RES
  GI50: > 100 µM (inactive)
OVCAR-4
  GI50: > 100 µM (inactive)
SN12C
  GI50: > 100 µM (inactive)
COLO 205
  GI50: > 100 µM (inactive)
A549
  GI50: > 100 µM (inactive)
SK-MEL-2
  GI50: > 100 µM (inactive)
MDA-MB-231
  GI50: > 100 µM (inactive)
SF-268
  GI50: > 100 µM (inactive)
HCC 2998
  GI50: > 100 µM (inactive)
KM12
  GI50: > 100 µM (inactive)
UACC-257
  GI50: > 100 µM (inactive)
HOP-62
  GI50: > 100 µM (inactive)
NCI-H460
  GI50: > 100 µM (inactive)
NCI-H522
  GI50: > 100 µM (inactive)
BT-549
  GI50: > 100 µM (inactive)
RPMI-8226
  GI50: > 100 µM (inactive)
UACC-62
  GI50: > 100 µM (inactive)

## C/C=C(\C)C(=O)O[C@@H]1CC(C)(C)CC2C3=CCC4[C@]56CC[C@](O)(OC5)C(C)(C)C6CC[C@@]4(C)C3(C)CC[C@]21C(=O)O (some centres undefined)
Hs-578T
  GI50: > 100 µM (inactive)
OVCAR-3
  GI50: 81.7 µM (inactive)
EKVX
  GI50: > 100 µM (inactive)
SK-OV-3
  GI50: > 100 µM (inactive)
ACHN
  GI50: 59.4 µM (inactive)
MOLT-4
  GI50: > 100 µM (inactive)
NCI-H23
  GI50: > 100 µM (inactive)
MCF7
  GI50: > 100 µM (inactive)
RXF 393
  GI50: > 100 µM (inactive)
A498
  GI50: > 100 µM (inactive)
K562
  GI50: > 100 µM (inactive)
TK-10
  GI50: > 100 µM (inactive)
OVCAR-5
  GI50: > 100 µM (inactive)
SF-295
  GI50: > 100 µM (inactive)
SW-620
  GI50: > 100 µM (inactive)
HCT-116
  GI50: 79.6 µM (inactive)
786-0
  GI50: > 100 µM (inactive)
HCT-15
  GI50: 83.4 µM
CAKI-1
  GI50: > 100 µM (inactive)
SK-MEL-28
  GI50: > 100 µM (inactive)
DU-145
  GI50: > 100 µM (inactive)
SK-MEL-5
  GI50: > 100 µM (inactive)
PC-3
  GI50: 39.3 µM (inactive)
MDA-N
  GI50: > 100 µM (inactive)
NCI-H226
  GI50: > 100 µM (inactive)
HT-29
  GI50: 97.1 µM (inactive)
T47D
  GI50: > 100 µM (inactive)
IGROV-1
  GI50: 54.3 µM (inactive)
HL-60
  GI50: 28.4 µM (inactive)
SNB-19
  GI50: > 100 µM (inactive)
CCRF-CEM
  GI50: > 100 µM (inactive)
OVCAR-8
  GI50: > 100 µM (inactive)
Malme-3M
  GI50: > 100 µM (inactive)
M14
  GI50: > 100 µM (inactive)
MDA-MB-435
  GI50: > 100 µM (inactive)
SF-539
  GI50: > 100 µM (inactive)
U-251
  GI50: 70.5 µM (inactive)
LOX IMVI
  GI50: 25.9 µM (inactive)
NCI/ADR-RES
  GI50: > 100 µM (inactive)
OVCAR-4
  GI50: > 100 µM (inactive)
SN12C
  GI50: > 100 µM (inactive)
COLO 205
  GI50: 83.9 µM (inactive)
A549
  GI50: 53.3 µM (inactive)
SK-MEL-2
  GI50: > 100 µM (inactive)
MDA-MB-231
  GI50: > 100 µM (inactive)
SF-268
  GI50: > 100 µM (inactive)
HCC 2998
  GI50: > 100 µM (inactive)
KM12
  GI50: 82.4 µM (inactive)
UACC-257
  GI50: > 100 µM (inactive)
HOP-62
  GI50: > 100 µM (inactive)
NCI-H460
  GI50: 78.2 µM (inactive)
NCI-H522
  GI50: > 100 µM (inactive)
BT-549
  GI50: > 100 µM (inactive)
RPMI-8226
  GI50: 87.9 µM (inactive)
UACC-62
  GI50: > 100 µM (inactive)
